The subject of data set [1] is Key Broadleaf Weed and Crop Species. As to the kind of experiment: Post-emergent Test II herbicidal activity (Table 15). The format is in vivo. Conditions: post-emergence, 336 h, 14 d; for pest or weed control at 35 g/ha: 35 g ai/ha; for pest or weed control at 70 g/ha: 70 g ai/ha; for pest or weed control at 140 g/ha: 140 g ai/ha. The procedure:
Post-emergent Test II: Seeds or nutlets of the desired test plant species were planted in Sun Gro Metro-Mix® 360 planting mixture, which typically has a pH of 6.0 to 6.8 and an organic matter content of about 30 percent, in plastic pots with a surface area of 64 square centimeters. When required to ensure good germination and healthy plants, a fungicide treatment and/or other chemical or physical treatment was applied. The plants were grown for 7-21 d in a greenhouse with an approximate 15 h photoperiod which was maintained at about 23-29° C. during the day and 22-28° C. during the night. Nutrients and water were added on a regular basis and supplemental lighting was provided with overhead metal halide 1000-Watt lamps as necessary. The plants were employed for testing when they reached the first or second true leaf stage.
A weighed amount, determined by the highest rate to be tested, of each test compound was placed in a 25 mL glass vial and was dissolved in 4 mL of a 97:3 v/v mixture of acetone and DMSO to obtain concentrated stock solutions. […] The concentrated stock solutions obtained were diluted with 20 mL of an aqueous mixture containing acetone, water, isopropyl alcohol, DMSO, Atplus 411F crop oil concentrate, and Triton® X-155 surfactant in a 48.5:39:10:1.5:1.0:0.02 v/v ratio to obtain spray solutions containing the highest application rates. Additional application rates were obtained by serial dilution of 12 mL of the high rate solution into a solution containing 2 mL of 97:3 v/v mixture of acetone and DMSO and 10 mL of an aqueous mixture containing acetone, water, isopropyl alcohol, DMSO, Atplus 411F crop oil concentrate, and Triton X-155 surfactant in a 48.5:39:10:1.5:1.0:0.02 v/v ratio to obtain 1/2×, 1/4×, 1/8× and 1/16× rates of the high rate. Compound requirements are based upon a 12 mL application volume at a rate of 187 liters per hectare (L/ha). Formulated compounds were applied to the plant material with an overhead Mandel track sprayer equipped with 8002E nozzles calibrated to deliver 187 L/ha over an application area of 0.503 square meters at a spray height of 18 inches (43 cm) above the average plant canopy height. Control plants were sprayed in the same manner with the solvent blank.
The treated plants and control plants were placed in a greenhouse as described above and watered by subirrigation to prevent wash-off of the test compounds. After 14 d, the condition of the test plants as compared with that of the untreated plants was determined visually and scored on a scale of 0 to 100 percent where 0 corresponds to no injury and 100 corresponds to complete kill.

Data set [2] relates to Key Grass and Sedge Weeds as well as Grass Crops. As to the kind of experiment: Post-emergent Test II herbicidal activity (Table 16). The format is in vivo. Conditions: post-emergence, 336 h; for pest or weed control at 35 g/ha: 35 g ai/ha; for pest or weed control at 35 g/ha / pest or weed control at 70 g/ha: 14 d; for pest or weed control at 70 g/ha: 70 g ai/ha; for pest or weed control at 140 g/ha: 140 g ai/ha, 14 days after application. An outline of the steps: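 Herbicidal effect scored as percent visual injury, 14 d after post-emergent application. Spray solutions contained acetone, DMSO, isopropyl alcohol, crop oil concentrate and surfactant, applied at 187 L/ha to young plants (1-2 true leaves).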

Setting [3] is: Abutilon theophrasti, velvetleaf (Abutilon theophrasti), read-out: Visual Growth Reduction (%) 14 Days After Application, ABUTH.
Where [4] appears, read: Amaranthus retroflexus, redroot pigweed (Amaranthus retroflexus), read-out: Visual Growth Reduction (%) 14 Days After Application, AMARE.
[5] abbreviates: Brassica napus, oilseed rape, canola (Brassica napus), read-out: Visual Growth Reduction (%) 14 Days After Application, BRSNN.
Setting [6] is: Chenopodium album, lambsquarters (Chenopodium album), read-out: Visual Growth Reduction (%) 14 Days After Application, CHEAL.
Where [7] appears, read: Euphorbia heterophylla, wild poinsettia (Euphorbia heterophylla), read-out: Visual Growth Reduction (%) 14 Days After Application, EPHHL.
The mark [8] stands for this setting: Helianthus annuus, sunflower (Helianthus annuus), read-out: Visual Growth Reduction (%) 14 Days After Application, HELAN.
The mark [9] stands for this setting: Cyperus esculentus, yellow nutsedge (Cyperus esculentus), read-out: Visual Growth Reduction (%) 14 Days After Application, CYPES.
The mark [10] stands for this setting: Echinochloa crus-galli, barnyardgrass (Echinochloa crus-galli), read-out: Visual Growth Reduction (%) 14 Days After Application, ECHCG.
Setting [11] is: Oryza sativa, rice (Oryza sativa), read-out: Visual Growth Reduction (%) 14 Days After Application, ORYSA.
Setting [12] is: Setaria faberi, giant foxtail (Setaria faberi), read-out: Visual Growth Reduction (%) 14 Days After Application, SETFA.
[13] abbreviates: Triticum aestivum, wheat, spring (Triticum aestivum), read-out: Visual Growth Reduction (%) 14 Days After Application, TRZAS.
Where [14] appears, read: Zea mays, maize, corn (Zea mays), read-out: Visual Growth Reduction (%) 14 Days After Application, ZEAMX.

Read-outs that look alike come from different tables or passages of the source.

As to `C=Cc1c(N)nc(-c2ccc3cc[nH]c3c2F)nc1C(=O)O` [Compound 1.39], the melting point (in general, the temperature of the solid-liquid transition) was 209 to 211 °C. Moreover, in data set [1] (setting [3]), the pest or weed control at 35 g/ha lay in the range of 0 to 29% and the pest or weed control at 70 g/ha lay in the range of 0 to 29%. Moreover, in data set [1] (setting [4]), the pest or weed control at 35 g/ha is 95 to 100% and the pest or weed control at 70 g/ha lay in the range of 95 to 100%. In addition, in data set [1] (setting [5]), the pest or weed control at 35 g/ha fell in the range of 75 to 84% and the pest or weed control at 70 g/ha is 85 to 94%. Further, in data set [1] (setting [6]), the pest or weed control at 35 g/ha was 95 to 100% and the pest or weed control at 70 g/ha lay within 75 to 84%. In data set [1] (setting [7]), the pest or weed control at 35 g/ha is 85 to 94% and the pest or weed control at 70 g/ha fell in the range of 75 to 84%. In addition, in data set [1] (setting [8]), the pest or weed control at 35 g/ha was in the range of 0 to 29% and the pest or weed control at 70 g/ha is 0 to 29%. Moreover, in data set [2] (setting [9]), the pest or weed control at 35 g/ha lay within 0 to 29% and the pest or weed control at 70 g/ha fell in the range of 0 to 29%. Besides, in data set [2] (setting [10]), the pest or weed control at 35 g/ha lay within 0 to 29% and the pest or weed control at 70 g/ha lay within 0 to 29%. In addition, in data set [2] (setting [11]), the pest or weed control at 35 g/ha is 0 to 29% and the pest or weed control at 70 g/ha is 0 to 29%. Further, in data set [2] (setting [12]), the pest or weed control at 35 g/ha fell in the range of 0 to 29% and the pest or weed control at 70 g/ha fell in the range of 0 to 29%. Further, in data set [2] (setting [13]), the pest or weed control at 35 g/ha lay within 0 to 29% and the pest or weed control at 70 g/ha is 0 to 29%. Also, in data set [2] (setting [14]), the pest or weed control at 35 g/ha was 0 to 29% and the pest or weed control at 70 g/ha fell in the range of 0 to 29%.
As to `COC(=O)c1nc(-c2ccc3cnn(C)c3c2)c(F)c(N)c1Cl` [Compound 4.07], the melting point lay in the range of 187 to 190 °C. For the same compound, in data set [1] (setting [3]), the pest or weed control at 140 g/ha lay within 45 to 59%. Besides, the pest or weed control at 140 g/ha in data set [1] (setting [5]) fell in the range of 45 to 59%. Moreover, the pest or weed control at 140 g/ha in data set [1] (setting [6]) lay within 0 to 29%. Besides, the pest or weed control at 140 g/ha in data set [1] (setting [7]) lay in the range of 60 to 74%. Further, the pest or weed control at 140 g/ha in data set [1] (setting [8]) lay in the range of 95 to 100%. For the same compound, in data set [2] (Cyperus esculentus, yellow nutsedge (Cyperus esculentus), read-out: Visual Growth Reduction (%) 14 Days After Application CYPES), the pest or weed control at 140 g/ha fell in the range of 0 to 29%. The pest or weed control at 140 g/ha in data set [2] (Echinochloa crus-galli, barnyardgrass (Echinochloa crus-galli), read-out: Visual Growth Reduction (%) 14 Days After Application ECHCG) lay in the range of 0 to 29%. For the same compound, the pest or weed control at 140 g/ha in data set [2] (Oryza sativa, rice (Oryza sativa), read-out: Visual Growth Reduction (%) 14 Days After Application ORYSA) lay within 0 to 29%. Besides, the pest or weed control at 140 g/ha in data set [2] (Setaria faberi, giant foxtail (Setaria faberi), read-out: Visual Growth Reduction (%) 14 Days After Application SETFA) lay in the range of 0 to 29%. The pest or weed control at 140 g/ha in data set [2] (Triticum aestivum, wheat, spring (Triticum aestivum), read-out: Visual Growth Reduction (%) 14 Days After Application TRZAS) lay in the range of 0 to 29%. Moreover, the pest or weed control at 140 g/ha in data set [2] (Zea mays, maize, corn (Zea mays), read-out: Visual Growth Reduction (%) 14 Days After Application ZEAMX) was 0 to 29%.

The values above are taken from patent US20170050957A1, “4-AMINO-6-(HETEROCYCLIC)PICOLINATES AND 6-AMINO-2-(HETEROCYCLIC)PYRIMIDINE-4-CARBOXYLATES AND THEIR USE AS HERBICIDES” (Dow AgroSciences LLC, priority 2013, published 2017).
